In patent US11987586B1 (TAKEDA PHARMACEUTICAL COMPANY LIMITED, priority 2022, dated 2024):

Biological target: T1, human OX2 receptor (Homo sapiens, UniProt O43614)
T1 construct: expressed in transfected cells
T1 sequence (O43614 1-444): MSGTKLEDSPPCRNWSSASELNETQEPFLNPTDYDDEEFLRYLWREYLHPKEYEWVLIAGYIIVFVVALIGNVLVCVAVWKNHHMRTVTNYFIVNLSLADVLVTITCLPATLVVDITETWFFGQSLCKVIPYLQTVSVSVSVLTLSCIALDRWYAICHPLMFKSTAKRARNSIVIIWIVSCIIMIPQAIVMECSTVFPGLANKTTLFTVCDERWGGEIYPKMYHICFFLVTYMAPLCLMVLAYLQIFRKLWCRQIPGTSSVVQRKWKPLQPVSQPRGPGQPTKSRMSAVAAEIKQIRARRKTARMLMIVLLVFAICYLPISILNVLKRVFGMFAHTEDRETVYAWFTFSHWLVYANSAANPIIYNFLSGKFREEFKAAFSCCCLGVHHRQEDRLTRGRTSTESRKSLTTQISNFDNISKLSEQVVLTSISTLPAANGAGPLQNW
Assay: Measurement of orexin type 2 receptor agonist activity (calcium fluorescence, Fluo-4, FDSS)
Type: cell-based
Details: 3 uM test compound; CHO cells expressing human OX2 receptor; DMSO = 0%, 10 nM orexin A (human) = 100%
In short: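 Agonist activity (%) was normalised to the response to 10 nM final human orexin A (100%) and to the DMSO vehicle (0%). The response was measured as the Fluo-4 calcium signal, read kinetically over 1 min 40 s after compound addition to Fluo-4/probenecid-loaded stable CHO-K1 clones expressing human OX2 (aa 1-444).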

Compound | OX2R agonist activity (3 uM, %) [%]
CCS(=O)(=O)N[C@@H]1CN2C(=O)N(c3noc4cc(Cl)cc(-c5c(F)cc(F)cc5F)c34)C[C@@H]2C1(F)F [Example 9, N-{(6R,7aR)-2-[6-chloro-4-(2,4,6-trifluorophenyl)-1,2-benzoxazol-3-yl]-7,7-difluoro-3-oxohexahydro-1H-pyrrolo[1,2-c]imidazol-6-yl}ethanesulfonamide] | 92
CNS(=O)(=O)N[C@@H]1CN2C(=O)N(c3noc4cccc(-c5c(F)cccc5F)c34)C[C@@H]2C1(F)F [Example 17, N-{(6R,7aR)-2-[4-(2,6-difluorophenyl)-1,2-benzoxazol-3-yl]-7,7-difluoro-3-oxohexahydro-1H-pyrrolo[1,2-c]imidazol-6-yl}-N′-methylsulfuric diamide] | 104
CCS(=O)(=O)N[C@H]1C[C@H]2CN(c3noc4cccc(-c5c(F)cc(F)cc5F)c34)C(=O)N2C1 [Example 65, N-{(6S,7aS)-3-oxo-2-[4-(2,4,6-trifluorophenyl)-1,2-benzoxazol-3-yl]hexahydro-1H-pyrrolo[1,2-c]imidazol-6-yl}ethanesulfonamide] | 99
CCS(=O)(=O)NC1Cn2c(cn(-c3noc4cccc(-c5c(F)cccc5F)c34)c2=O)C1(F)F (single isomer, unassigned) [Example 5, N-{(6R*)-2-[4-(2,6-difluorophenyl)-1,2-benzoxazol-3-yl]-7,7-difluoro-3-oxo-2,5,6,7-tetrahydro-3H-pyrrolo[1,2-c]imidazol-6-yl}ethanesulfonamide] | 106
COCc1cc2onc(-n3cc4n(c3=O)C[C@@H](NS(C)(=O)=O)C4(F)F)c2c(-c2c(F)cccc2F)c1F [Example 226, N-{(6R)-2-[4-(2,6-difluorophenyl)-5-fluoro-6-(methoxymethyl)-1,2-benzoxazol-3-yl]-7,7-difluoro-3-oxo-2,5,6,7-tetrahydro-3H-pyrrolo[1,2-c]imidazol-6-yl}methanesulfonamide] | 93
CN(C)S(=O)(=O)N[C@H]1C[C@H]2CN(c3noc4cccc(-c5c(F)cccc5F)c34)C(=O)N2C1 [Example 28, N′-{(6S,7aS)-2-[4-(2,6-difluorophenyl)-1,2-benzoxazol-3-yl]-3-oxohexahydro-1H-pyrrolo[1,2-c]imidazol-6-yl}-N,N-dimethylsulfuric diamide] | 106
CCS(=O)(=O)N[C@H]1C[C@H]2CN(c3noc4cccc(-c5c(F)ccc(F)c5F)c34)C(=O)N2C1 [Example 21, N-{(6S,7aS)-3-oxo-2-[4-(2,3,6-trifluorophenyl)-1,2-benzoxazol-3-yl]hexahydro-1H-pyrrolo[1,2-c]imidazol-6-yl}ethanesulfonamide] | 81
CCS(=O)(=O)N[C@@H]1CN2C(=O)N(c3noc4nc(OC)cc(-c5c(F)cc(F)cc5F)c34)CC[C@@H]2C1(F)F [Example 315, N-{(4aR,6R)-5,5-difluoro-2-[6-methoxy-4-(2,4,6-trifluorophenyl)[1,2]oxazolo[5,4-b]pyridin-3-yl]-1-oxooctahydropyrrolo[1,2-c]pyrimidin-6-yl}ethanesulfonamide] | 105
O=c1n(-c2noc3cc(F)cc(-c4c(F)cc(F)cc4F)c23)cc2n1C[C@@H](NS(=O)(=O)CF)C2(F)F [Example 288, N-{(6R)-7,7-difluoro-2-[6-fluoro-4-(2,4,6-trifluorophenyl)-1,2-benzoxazol-3-yl]-3-oxo-2,5,6,7-tetrahydro-3H-pyrrolo[1,2-c]imidazol-6-yl}-1-fluoromethanesulfonamide] | 101
CS(=O)(=O)N[C@@H]1CN2C(=O)N(c3noc4cccc(-c5c(F)cc(F)cc5F)c34)C(O)[C@@H]2C1(F)F (relative stereo) [Example 125, N-{(1R*,6R,7aR)-7,7-difluoro-1-hydroxy-3-oxo-2-[4-(2,4,6-trifluorophenyl)-1,2-benzoxazol-3-yl]hexahydro-1H-pyrrolo[1,2-c]imidazol-6-yl}methanesulfonamide] | 103
CCS(=O)(=O)N[C@@H]1Cn2c(cn(-c3noc4cc(COC)c(F)c(-c5c(F)cc(F)cc5F)c34)c2=O)C1(F)F [Example 239, N-{(6R)-7,7-difluoro-2-[5-fluoro-6-(methoxymethyl)-4-(2,4,6-trifluorophenyl)-1,2-benzoxazol-3-yl]-3-oxo-2,5,6,7-tetrahydro-3H-pyrrolo[1,2-c]imidazol-6-yl}ethanesulfonamide] | 95
CCS(=O)(=O)NC1Cn2cc(-c3noc4cccc(-c5c(F)cccc5F)c34)c(=O)n2C1 (single isomer, unassigned) [Example 339, N-{(2R*)-6-[4-(2,6-difluorophenyl)-1,2-benzoxazol-3-yl]-5-oxo-2,3-dihydro-1H,5H-pyrazolo[1,2-a]pyrazol-2-yl}ethanesulfonamide] | 96
CS(=O)(=O)N[C@@H]1Cn2c(cn(-c3noc4cc(Cl)cc(-c5c(F)cccc5F)c34)c2=O)C1(F)F [Example 73, N-{(6R)-2-[6-chloro-4-(2,6-difluorophenyl)-1,2-benzoxazol-3-yl]-7,7-difluoro-3-oxo-2,5,6,7-tetrahydro-3H-pyrrolo[1,2-c]imidazol-6-yl}methanesulfonamide] | 105
CCS(=O)(=O)N[C@@H]1Cn2c(cn(-c3noc4nc(OC)cc(-c5c(F)cc(F)cc5F)c34)c2=O)C1(F)F [Example 309, N-{(6R)-7,7-difluoro-2-[6-methoxy-4-(2,4,6-trifluorophenyl)[1,2]oxazolo[5,4-b]pyridin-3-yl]-3-oxo-2,5,6,7-tetrahydro-3H-pyrrolo[1,2-c]imidazol-6-yl}ethanesulfonamide] | 107
CCS(=O)(=O)N[C@@H]1CN2C(=O)N(c3noc4cc(F)cc(-c5c(F)cccc5F)c34)CC[C@@H]2C1(F)F [Example 247, N-{(4aR,6R)-2-[4-(2,6-difluorophenyl)-6-fluoro-1,2-benzoxazol-3-yl]-5,5-difluoro-1-oxooctahydropyrrolo[1,2-c]pyrimidin-6-yl}ethanesulfonamide] | 101
CCS(=O)(=O)N[C@H]1C[C@H]2CN(c3cnc4cccc(-c5c(F)cccc5F)n34)C(=O)N2C1 [Example 182, N-{(6S,7aS)-2-[5-(2,6-difluorophenyl)imidazo[1,2-a]pyridin-3-yl]-3-oxohexahydro-1H-pyrrolo[1,2-c]imidazol-6-yl}ethanesulfonamide] | 84
CS(=O)(=O)N[C@@H]1CN2C(=O)N(c3noc4ccc(F)c(-c5c(F)cccc5F)c34)C[C@@H]2C1(F)F [Example 38, N-{(6R,7aR)-2-[4-(2,6-difluorophenyl)-5-fluoro-1,2-benzoxazol-3-yl]-7,7-difluoro-3-oxohexahydro-1H-pyrrolo[1,2-c]imidazol-6-yl}methanesulfonamide] | 111
CCS(=O)(=O)N[C@H]1C[C@H]2CN(c3noc4cc(OC)cc(-c5c(F)cccc5F)c34)C(=O)N2C1 [Example 41, N-{(6S,7aS)-2-[4-(2,6-difluorophenyl)-6-methoxy-1,2-benzoxazol-3-yl]-3-oxohexahydro-1H-pyrrolo[1,2-c]imidazol-6-yl}ethanesulfonamide] | 100
